# Laboratory results taken from patent US9409905B2, “Antibacterial compounds and methods for use” (PTC THERAPEUTICS, INC., priority 2011, dated 2016).
# What was measured:
# [1] = tested on: Escherichia coli (E. coli) BAS849; experiment: Antibacterial activity, microbroth dilution MIC (Table 1); assay type: cell-based; conditions: microbroth dilution, super sensitive Gram-negative E. coli BAS849, read-out: MIC, BAS849
# Method in brief: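 Values are MICs (μg/mL): the smallest drug amount at which macroscopically visible bacterial growth is absent under assay conditions, from a microdilution method in broth.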
# [2] = tested on: Staphylococcus aureus (S. aureus) 29213; experiment: as above; assay type: cell-based; conditions: microbroth dilution, Gram-positive S. aureus 29213, read-out: MIC, 29213
# Method in brief: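 Read-out: visual absence of growth. The lowest concentration meeting this gives the MIC, expressed in μg/mL, with microbroth dilution as the method.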
# E. coli 25922 = experiment: as above; assay type: cell-based, Escherichia coli; conditions: Escherichia coli; microbroth dilution; control Gram-negative E. coli 25922 strain; read-out: MIC, 25922
# Method in brief: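 Microbroth dilution was used. MIC, in μg/mL, is the lowest drug concentration preventing macroscopically visible growth under the test conditions.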
# [3] = tested on: Pseudomonas aeruginosa (P. aeruginosa) 27853; experiment: Antibacterial activity, MIC (Table 5); assay type: cell-based; conditions: P. aeruginosa 27853, read-out: MIC, 27853
# Method in brief: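 Using a microbroth dilution format, the minimum inhibitory concentration was recorded as the lowest tested concentration that stopped visible bacterial growth, expressed in μg/mL.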
# E. coli LZ3111 = experiment: Antibacterial activity, MIC, quinolone resistant strain (Table 2); assay type: cell-based; conditions: Escherichia coli, LZ3111, read-out: MIC LZ3111
# Method in brief: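 Growth inhibition assessed by serial drug dilution in broth; endpoint was absence of macroscopically visible growth, reported as MIC, μg/mL.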
# E. coli ELZ4251 = experiment: Antibacterial activity, MIC, multi-drug resistant clinical isolate (Table 3); assay type: cell-based; conditions: Escherichia coli
# From the text: (§1) The antibacterial activity from a microbroth dilution method may be presented as the minimum inhibitory concentration (MIC in μg/mL). The MIC value is the lowest concentration of drug which prevents macroscopically visible growth under test conditions.
# (§2) Antibacterial activity of test compounds against E. coli ELZ4000 and E. coli ELZ4251 multi-drug resistant clinical isolates is shown in Table 3.
# E. coli ELZ4000 = experiment: as above; assay type: cell-based; conditions: Escherichia coli, ELZ4000, read-out: MIC ELZ4000
# From the text: as §1, §2
SMILES,MIC [1],MIC [2],MIC (E. coli 25922),MIC [3],MIC (E. coli LZ3111),MIC (E. coli ELZ4251),MIC (E. coli ELZ4000)
"CCc1c(-c2ccc3c(c2)cc(CN2C[C@H]4CCC[C@@H](N)[C@H]4C2)n3C)[nH]c(=O)c(C(=O)O)c1O [Cpd 284, 6-(2-(((3aR,4R,7aS)-4-amino-1H-isoindol-2(3H,3aH,4H,5H,6H,7H,7aH)-yl)methyl)-1-methyl-1H-indol-5-yl)-5-ethyl-4-hydroxy-2-oxo-1,2-dihydropyridine-3-carboxylic acid]",< 1 µg/mL,12.5 to 150 µg/mL,1 to 3.5 µg/mL,3.5 to 12.5 µg/mL,3.5 to 12.5 µg/mL,12.5 to 150 µg/mL,12.5 to 150 µg/mL
"CCc1c(-c2ccc3c(c2)cc(CNCC2CCOCC2)n3C)[nH]c(=O)c(C(=O)O)c1O.Cl [Cpd 227, 5-ethyl-4-hydroxy-6-(1-methyl-2-(((tetrahydro-2H-pyran-4-yl)methylamino)methyl)-1H-indol-5-yl)-2-oxo-1,2-dihydropyridine-3-carboxylic acid hydrochloride]",< 1 µg/mL,3.5 to 12.5 µg/mL,1 to 3.5 µg/mL,12.5 to 150 µg/mL,12.5 to 150 µg/mL,12.5 to 150 µg/mL,12.5 to 150 µg/mL
"CCc1c(-c2ccc3c(c2)cc(CN2CCCNCC2)n3C)[nH]c(=O)c(C(=O)O)c1O.Cl.Cl [Cpd 239, 6-(2-((1,4-diazepan-1-yl)methyl)-1-methyl-1H-indol-5-yl)-5-ethyl-4-hydroxy-2-oxo-1,2-dihydropyridine-3-carboxylic acid dihydrochloride]",1 to 3.5 µg/mL,12.5 to 150 µg/mL,3.5 to 12.5 µg/mL,12.5 to 150 µg/mL,3.5 to 12.5 µg/mL,3.5 to 12.5 µg/mL,12.5 to 150 µg/mL
"CCc1c(-c2ccc3c(c2)cc(CN2C[C@H]4CC[C@@H](N(C)C)[C@H]4C2)n3C)[nH]c(=O)c(C(=O)O)c1O [Cpd 278, 6-(2-(((3aR,4R,6aS)-4-(dimethylamino)hexahydrocyclopenta[c]pyrrol-2(1H)-yl)methyl)-1-methyl-1H-indol-5-yl)-5-ethyl-4-hydroxy-2-oxo-1,2-dihydropyridine-3-carboxylic acid]",< 1 µg/mL,3.5 to 12.5 µg/mL,1 to 3.5 µg/mL,12.5 to 150 µg/mL,3.5 to 12.5 µg/mL,12.5 to 150 µg/mL,12.5 to 150 µg/mL
"CCc1c(-c2ccc3c(c2)cc(CN2CCCC(O)C2)n3C)[nH]c(=O)c(C(=O)O)c1O (centres unmarked) [Cpd 255, 5-ethyl-4-hydroxy-6-(2-((3-hydroxypiperidin-1-yl)methyl)-1-methyl-1H-indol-5-yl)-2-oxo-1,2-dihydropyridine-3-carboxylic acid]",< 1 µg/mL,3.5 to 12.5 µg/mL,1 to 3.5 µg/mL,12.5 to 150 µg/mL,12.5 to 150 µg/mL,12.5 to 150 µg/mL,12.5 to 150 µg/mL
"CCc1c(-c2ccc3c(c2)cc(CN(C)C2CCCNC2)n3C)[nH]c(=O)c(C(=O)O)c1O (centres unmarked) [Cpd 262, 5-ethyl-4-hydroxy-6-(1-methyl-2-((methyl(piperidin-3-yl)amino)methyl)-1H-indol-5-yl)-2-oxo-1,2-dihydropyridine-3-carboxylic acid]",1 to 3.5 µg/mL,12.5 to 150 µg/mL,3.5 to 12.5 µg/mL,12.5 to 150 µg/mL,3.5 to 12.5 µg/mL,12.5 to 150 µg/mL,12.5 to 150 µg/mL
"CCc1c(-c2ccc3c(c2)cc(CN(CC2CC2)C2CCNCC2)n3C)[nH]c(=O)c(C(=O)O)c1O [Cpd 264, 6-(2-(((cyclopropylmethyl)(piperidin-4-yl)amino)methyl)-1-methyl-1H-indol-5-yl)-5-ethyl-4-hydroxy-2-oxo-1,2-dihydropyridine-3-carboxylic acid]",1 to 3.5 µg/mL,3.5 to 12.5 µg/mL,3.5 to 12.5 µg/mL,12.5 to 150 µg/mL,1 to 3.5 µg/mL,3.5 to 12.5 µg/mL,12.5 to 150 µg/mL
"CCc1c(-c2ccc3c(c2)cc(CN2CCCCC2)n3C)[nH]c(=O)c(C(=O)O)c1N [Cpd 331, 4-amino-5-ethyl-6-(1-methyl-2-(piperidin-1-ylmethyl)-1H-indol-5-yl)-2-oxo-1,2-dihydropyridine-3-carboxylic acid]",< 1 µg/mL,12.5 to 150 µg/mL,3.5 to 12.5 µg/mL,12.5 to 150 µg/mL,12.5 to 150 µg/mL,12.5 to 150 µg/mL,12.5 to 150 µg/mL
